Measurements taken from patent publication US8486885B2, “β-arrestin effectors and compositions and methods of use thereof” (Trevena, Inc., priority 2008, dated 2013).
pEC50: −log10 of the molar value. Non-standard residues stand in square brackets, D forms with d. Residues, ends and D or L forms follow the SMILES beside them. Sar = CNCC(=O)O

What was measured:
Assay type in all cases: cell-based
[1] = molecular target: human angiotensin 2 type 1 receptor (human AT1R) (Homo sapiens, UniProt P30556); assay: PathHunter β-arrestin-2 recruitment assay, human AT1R; details: PathHunter β-arrestin HEK293 cells; for pEC50: read-out: human AT1R b-arrestin2 EC50
Protocol: (§1) The proximal event in β-arrestin function mediated by GPCRs is recruitment to receptors following ligand binding and receptor phosphorylation by GRK's. Thus, the measure of β-arrestin recruitment was used to determine ligand efficacy for β-arrestin function.
(§2) B-arrestin-2 recruitment to the human and rat angiotensin 2 type 1 receptor (human AT1R and rat AT1aR, respectively) was measured with the PathHunter™ β-arrestin assay (DiscoveRx Corporation, Fremont Calif.). Cells, plasmid(s), and detection reagent(s) were purchased from DiscoveRx, and assays were performed per manufacturer's instructions. Human AT1R and rat AT1aR were cloned into the pCMV-ProLink vector, verified by sequencing, and transfected into PathHunter β-arrestin HEK293 cells. Stably transfected clonal cell lines were selected with Hygromycin and G418. These clonal cell lines were used for all experiments.
(§3) For assays, 25,000 cells were seeded per well in 96-well microplates in volumes of 90 μL and allowed to grow overnight at 37° C. in 5% CO2. Peptides of the invention were dissolved in deionized water to a concentration of 1 mM. Peptides were then further diluted in assay buffer (Hank's balanced salt solution with 20 mM HEPES) to add peptide to the cells to reach final concentrations ranging from 10 μM to 1 pM. Cells were then incubated for 60 minutes at 37° C. in 5% CO2, followed by addition of 50 μL of PathHunter Detection Reagent to each well. The microplates were then incubated at room temperature for 60 minutes, and then luminescence was measured using a NOVOstar microplate reader purchased from BMG Labtech. B-arrestin-2 recruitment to receptors was measured as relative luminescence intensity expressed in arbitrary units.
Target sequence in this assay (P32121 whole entry partner, one chain of several): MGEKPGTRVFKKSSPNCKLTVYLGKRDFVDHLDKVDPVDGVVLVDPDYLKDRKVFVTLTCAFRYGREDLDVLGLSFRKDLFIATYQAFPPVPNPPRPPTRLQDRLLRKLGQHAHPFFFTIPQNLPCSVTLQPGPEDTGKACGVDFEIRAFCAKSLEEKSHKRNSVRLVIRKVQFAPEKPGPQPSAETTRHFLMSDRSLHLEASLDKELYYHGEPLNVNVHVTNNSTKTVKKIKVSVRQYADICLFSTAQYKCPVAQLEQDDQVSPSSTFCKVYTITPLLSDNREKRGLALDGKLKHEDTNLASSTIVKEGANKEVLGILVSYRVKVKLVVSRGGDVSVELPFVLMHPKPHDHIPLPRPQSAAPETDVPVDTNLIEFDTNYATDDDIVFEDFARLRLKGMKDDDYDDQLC

[2] = molecular target: rat angiotensin 2 type 1 receptor (rat AT1aR) (Rattus norvegicus, UniProt P25095); assay: PathHunter β-arrestin-2 recruitment assay, rat AT1aR; details: PathHunter β-arrestin HEK293 cells; for pEC50: read-out: rat AT1aR b-arrestin2 EC50
Protocol: as §1, §2, §3
Target sequence in this assay (P32121 whole entry partner, one chain of several): as above

[3] = molecular target: T1, human angiotensin 2 type 1 receptor (human AT1R) (Homo sapiens, UniProt P30556); assay: IP1 accumulation assay (IP-One Tb), human AT1R; details: cells expressing human AT1R
T1 construct: expressed in transfected cells
T1 sequence (P30556 1-359): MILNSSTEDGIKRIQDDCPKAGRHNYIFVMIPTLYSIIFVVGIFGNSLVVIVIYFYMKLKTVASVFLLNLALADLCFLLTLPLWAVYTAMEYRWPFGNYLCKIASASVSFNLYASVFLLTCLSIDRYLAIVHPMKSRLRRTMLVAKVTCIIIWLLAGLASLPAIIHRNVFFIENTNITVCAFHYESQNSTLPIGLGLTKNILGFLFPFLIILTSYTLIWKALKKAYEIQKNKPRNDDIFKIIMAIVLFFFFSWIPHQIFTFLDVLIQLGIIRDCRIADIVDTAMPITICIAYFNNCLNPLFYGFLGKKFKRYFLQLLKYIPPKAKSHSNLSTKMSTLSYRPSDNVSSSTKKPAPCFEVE
Protocol: (§4) A secondary measure of G protein coupling efficacy was also performed. IP3 is generated by activation of phospholipase C by Gα-q. IP3 is degraded to IP1, which can be forced to accumulate in cells by blocking degradation with lithium chloride. Thus we measured accumulation of IP1 to determine ligand efficacy for G protein activation.
(§5) IP1 accumulation generated by human and rat angiotensin 2 type 1 receptor (human AT1R and rat AT1aR, respectively) was measured with IP-One Tb kits purchased from Cisbio and used per the manufacturer's instructions. Clonal stably transfected cell lines expressing human AT1TR or rat AT1aR were used for all experiments.
(§6) For assays, 4,000 cells were seeded per well in 384-well small-volume microplates in volumes of 20 uL and allowed to grow overnight at 37° C. in 5% CO2. Cell growth media was then replaced with stimulation buffer supplied by Cisbio containing 50 mM lithium chloride. Peptides TRV-120,001 through TRV-120,035 were dissolved in deionized water to a concentration of 1 mM. For agonist detection, peptides were then further diluted in stimulation buffer to add peptide to the cells to reach final concentrations ranging from 10 uM to 1 pM. […] Following addition of peptides, cells were incubated at 37° C. in 5% CO2 for 30 minutes and then lysed with detection reagents added per manufacturer's instructions.

[4] = molecular target: T2, rat angiotensin 2 type 1 receptor (rat AT1aR) (Rattus norvegicus, UniProt P25095); assay: IP1 accumulation assay (IP-One Tb), rat AT1aR; details: cells expressing rat AT1aR
T2 construct: expressed in transfected cells
T2 sequence (P25095 1-359): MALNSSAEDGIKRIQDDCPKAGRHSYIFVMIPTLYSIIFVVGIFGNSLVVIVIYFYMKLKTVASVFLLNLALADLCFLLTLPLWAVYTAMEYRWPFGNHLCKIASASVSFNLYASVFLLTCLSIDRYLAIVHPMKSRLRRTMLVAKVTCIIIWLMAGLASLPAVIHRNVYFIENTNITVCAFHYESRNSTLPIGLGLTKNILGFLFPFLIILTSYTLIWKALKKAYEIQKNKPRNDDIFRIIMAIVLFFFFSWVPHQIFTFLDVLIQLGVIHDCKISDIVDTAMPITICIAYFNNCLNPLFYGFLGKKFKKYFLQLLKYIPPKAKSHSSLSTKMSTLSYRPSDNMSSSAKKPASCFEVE
Protocol: as §4, §5, §6

CNCC(=O)N[C@@H](CCCNC(=N)N)C(=O)N[C@H](C(=O)N[C@@H](Cc1ccc(O)cc1)C(=O)N[C@@H](CCC(=O)O)C(=O)N[C@@H](Cc1c[nH]cn1)C(=O)N1CCC[C@H]1C(N)=O)C(C)C [SEQ ID NO:40, Sar-Arg-Val-Tyr-Glu-His-Pro-NH2] (H-[Sar]RVYEHP-NH2; N-terminus assumed)
human AT1R b-arrestin2 Max (%) [1]: 53.2%
rat AT1aR b-arrestin2 Max (%) [2]: 87.9%
pEC50 [2]: 7.51
human AT1R IP One EC50 (M) [3]: inactive
rat AT1aR IP One EC50 (M) [4]: Inactive

CNCC(=O)N[C@@H](CCCNC(=N)N)C(=O)N[C@H](C(=O)N[C@@H](Cc1ccc(O)cc1)C(=O)N[C@@H](CCCCN)C(=O)N[C@@H](Cc1c[nH]cn1)C(=O)N1CCC[C@H]1C(N)=O)C(C)C [SEQ ID NO:43, Sar-Arg-Val-Tyr-Lys-His-Pro-NH2] (H-[Sar]RVYKHP-NH2)
human AT1R b-arrestin2 Max (%) [1]: 42.7%
rat AT1aR b-arrestin2 Max (%) [2]: 64.8%
human AT1R IP One EC50 (M) [3]: inactive
pEC50 [4]: 6.59
rat AT1aR IP One Max (%) [4]: 17.9%

CNCC(=O)N[C@@H](CCCNC(=N)N)C(=O)N[C@H](C(=O)N[C@@H](Cc1ccc(O)cc1)C(=O)N[C@H](C(=O)N[C@@H](Cc1c[nH]cn1)C(=O)N1CCC[C@H]1C(=O)O)C(C)C)C(C)C [SEQ ID NO:54, Sar-Arg-Val-Tyr-Val-His-Pro-OH]
human AT1R b-arrestin2 Max (%) [1]: 58.6%
rat AT1aR b-arrestin2 Max (%) [2]: 83.0%
human AT1R IP One EC50 (M) [3]: inactive
rat AT1aR IP One EC50 (M) [4]: Inactive

CNCC(=O)N[C@@H](CCCNC(=N)N)C(=O)N[C@H](C(=O)N[C@@H](Cc1ccc(O)cc1)C(=O)N[C@@H](CCCNC(=N)N)C(=O)N[C@@H](Cc1c[nH]cn1)C(=O)N1CCC[C@H]1C(N)=O)C(C)C [SEQ ID NO:45, Sar-Arg-Val-Tyr-Arg-His-Pro-NH2] (H-[Sar]RVYRHP-NH2; N-terminus assumed)
human AT1R b-arrestin2 Max (%) [1]: 53.3%
rat AT1aR b-arrestin2 Max (%) [2]: 91.7%
pEC50 [2]: 7.57
human AT1R IP One EC50 (M) [3]: inactive
rat AT1aR IP One Max (%) [4]: 10.2%

CC[C@H](C)[C@H](NC(=O)[C@H](Cc1ccc(O)cc1)NC(=O)[C@@H](NC(=O)[C@H](CCCNC(=N)N)NC(=O)CNC)C(C)C)C(=O)N[C@@H](Cc1c[nH]cn1)C(=O)N1CCC[C@@H]1C(N)=O [SEQ ID NO:51, Sar-Arg-Val-Tyr-Ile-His-D-Pro-NH2]
human AT1R b-arrestin2 Max (%) [1]: 20.2%
pEC50 [1]: 6.48
rat AT1aR b-arrestin2 Max (%) [2]: 5.8%
human AT1R IP One EC50 (M) [3]: inactive
rat AT1aR IP One EC50 (M) [4]: Inactive

CC[C@H](C)[C@H](NC(=O)[C@H](Cc1ccccc1)NC(=O)[C@@H](NC(=O)[C@H](CCCNC(=N)N)NC(=O)CNC)C(C)C)C(=O)N[C@@H](Cc1c[nH]cn1)C(=O)N1CCC[C@H]1C(=O)N[C@H](C)C(=O)O [SEQ ID NO:48, Sar-Arg-Val-Phe-Ile-His-Pro-D-Ala-OH]
human AT1R b-arrestin2 Max (%) [1]: 48.1%
rat AT1aR b-arrestin2 Max (%) [2]: 42.1%
human AT1R IP One EC50 (M) [3]: inactive
pEC50 [4]: 6.70
rat AT1aR IP One Max (%) [4]: 13.9%

CNCC(=O)N[C@@H](CCCNC(=N)N)C(=O)N[C@H](C(=O)N[C@@H](Cc1ccc(O)cc1)C(=O)N[C@@H](Cc1ccc(O)cc1)C(=O)N[C@@H](Cc1c[nH]cn1)C(=O)N1CCC[C@H]1C(=O)O)C(C)C [SEQ ID NO:52, Sar-Arg-Val-Tyr-Tyr-His-Pro-OH]
human AT1R b-arrestin2 Max (%) [1]: 45.9%
pEC50 [1]: 5.85
rat AT1aR b-arrestin2 Max (%) [2]: 83.8%
human AT1R IP One EC50 (M) [3]: inactive
rat AT1aR IP One Max (%) [4]: 8.0%

CNCC(=O)N[C@@H](CCCNC(=N)N)C(=O)N[C@H](C(=O)N[C@@H](Cc1ccc(O)cc1)C(=O)N[C@@H](Cc1c[nH]cn1)C(=O)N[C@@H](Cc1c[nH]cn1)C(=O)N1CCC[C@H]1C(N)=O)C(C)C [SEQ ID NO:42, Sar-Arg-Val-Tyr-His-His-Pro-NH2] (H-[Sar]RVYHHP-NH2; N-terminus assumed)
human AT1R b-arrestin2 Max (%) [1]: 46.4%
pEC50 [1]: 6.20
rat AT1aR b-arrestin2 Max (%) [2]: 74.9%
pEC50 [2]: 6.57
human AT1R IP One EC50 (M) [3]: inactive
rat AT1aR IP One EC50 (M) [4]: Inactive

CC[C@H](C)[C@H](NC(=O)[C@H](Cc1ccc(O)cc1)NC(=O)[C@@H](NC(=O)[C@H](CCCNC(=N)N)NC(=O)CNC)C(C)C)C(=O)N[C@@H](CCCCN)C(=O)N1CCC[C@H]1C(=O)N[C@H](C)C(=O)O [SEQ ID NO:50, Sar-Arg-Val-Tyr-Ile-Lys-Pro-D-Ala-OH] (H-[Sar]RVYIKP[dA]-OH; N-terminus assumed)
human AT1R b-arrestin2 Max (%) [1]: 56.8%
pEC50 [1]: 6.17
rat AT1aR b-arrestin2 Max (%) [2]: 85.6%
pEC50 [2]: 6.57
human AT1R IP One EC50 (M) [3]: inactive
rat AT1aR IP One EC50 (M) [4]: Inactive

CC[C@H](C)[C@H](NC(=O)[C@H](Cc1ccc(O)cc1)NC(=O)[C@@H](NC(=O)[C@H](CCCCN)NC(=O)CNC)C(C)C)C(=O)N[C@@H](Cc1c[nH]cn1)C(=O)N1CCC[C@H]1C(=O)N[C@H](C)C(=O)O [SEQ ID NO:49, Sar-Lys-Val-Tyr-Ile-His-Pro-D-Ala-OH]
human AT1R b-arrestin2 Max (%) [1]: 72.7%
pEC50 [1]: 6.00
rat AT1aR b-arrestin2 Max (%) [2]: 52.9%
pEC50 [2]: 6.20
human AT1R IP One EC50 (M) [3]: inactive
rat AT1aR IP One EC50 (M) [4]: Inactive

CC[C@H](C)[C@H](NC(=O)[C@H](Cc1ccc(O)cc1)NC(=O)[C@@H](NC(=O)[C@H](CCCNC(=N)N)NC(=O)[C@@H](C)NC)C(C)C)C(=O)N[C@@H](Cc1c[nH]cn1)C(=O)N1CCC[C@H]1C(=O)N[C@@H](C)C(=O)O [SEQ ID NO:47]
human AT1R b-arrestin2 Max (%) [1]: 80.5%
rat AT1aR b-arrestin2 Max (%) [2]: 72.2%
pEC50 [2]: 5.68
rat AT1aR IP One EC50 (M) [4]: Inactive

CC[C@H](C)[C@H](NC(=O)[C@H](Cc1ccc(O)cc1)NC(=O)[C@@H](NC(=O)[C@H](CCCNC(=N)N)NC(=O)[C@@H](N)CC(=O)O)C(C)C)C(=O)N[C@@H](Cc1c[nH]cn1)C(=O)N1CCC[C@H]1C(=O)NCC(=O)O [SEQ ID NO:56] (H-DRVYIHPG-OH; N-terminus assumed)
human AT1R b-arrestin2 Max (%) [1]: 104.4%
rat AT1aR b-arrestin2 Max (%) [2]: 98.5%
pEC50 [2]: 6.80
human AT1R IP One Max (%) [3]: 96.5%
rat AT1aR IP One Max (%) [4]: 98.4%

CNCC(=O)N[C@@H](CCCNC(=N)N)C(=O)N[C@H](C(=O)N[C@@H](Cc1ccc(O)cc1)C(=O)N[C@@H](Cc1ccccc1)C(=O)N[C@@H](Cc1c[nH]cn1)C(=O)N1CCC[C@H]1C(N)=O)C(C)C [SEQ ID NO:41, Sar-Arg-Val-Tyr-Phe-His-Pro-NH2]
human AT1R b-arrestin2 Max (%) [1]: 30.1%
pEC50 [1]: 5.80
rat AT1aR b-arrestin2 Max (%) [2]: 53.1%
human AT1R IP One EC50 (M) [3]: inactive
rat AT1aR IP One EC50 (M) [4]: Inactive
